{
  "source": "patent US20030017186A1",
  "about": "“Carboxylic acid fluorides as pesticides” (priority 1999, published 2003)",
  "format_in_all_cases": "in vivo",
  "key": {"Incisitermes tabogae": {"tested_on": "Incisitermes tabogae", "experiment": "Termite control fumigation test, Incisitermes tabogae", "conditions": "Example 6", "from_the_text": "(§1) c) American drywood termites (Cryptotermes brevis)=CRYPBR, and Incisitermes tabogae=INCITA\n(§2) The test organisms, separated by species, were placed into a glass vessel measuring 30 cm×30 cm×60 cm, which was sealed with a glass lid so as to be airtight. The adults and the larvae of the mealworm beetle (Tenebrio molitor) and the broad-horned flour beetle (Gnathocerus cornutus) were placed into small glass vessels approximately 5 cm in diameter, which were closed with a gauze lid and in which they could freely move about. The larvae of the rice weevil had burrowed into seeds of grain. The wood pest larvae were inserted into small blocks of wood measuring 5 cm×2.5 cm×2 cm. The openings were sealed with wads of cotton wool. Only one each of the larvae of the house longhorn beetle (Hylotrupes bajulus) was inserted into a piece of wood, while 6-8 larvae of the common furniture beetle (Anobium punctatum) were inserted into each piece of wood.\n(§3) The respective gas was then introduced into the fumigation vessel through a gas line from a gas tank that contained the specified amount of gas. After a defined time period, the fumigation vessel was purged with compressed air. The discharged gas was purified by an attached gas scrubber.\n(§4) The beetles were observed until they died. This point was recorded for each species. The larvae of the wood pests as well as the larvae of the rice weevil (Sitophilus oryzae) had to be picked out of the wood or the grain to check their condition. If any of the animals were still alive, the wooden test blocks remaining in the vessel were fumigated again and were reexamined after the corresponding time span had elapsed. The same number of animals in the untreated control was also checked at each point.\n(§5) The vitality of the animals was checked at certain time intervals. The beetles could be observed through the fumigation vessel. This was also true for the larvae of the mealworm beetle and the broad-horned flour beetle. The wooden test blocks of the wood pest larvae were opened with hammer and chisel. Tweezers were used to pull the rice weevil larvae out of the grain seeds. The exact time intervals and the number of the evaluated pests were documented in the test results."}, "[1]": {"tested_on": "Common furniture beetle (Anobium punctatum)", "experiment": "Fumigation test in glass vessel, common furniture beetles", "conditions": "ANOBPU beetles; Example 5; ACF 50.6/48.2/51.4 g/m^3, SF 47.4/44.6/41 g/m^3 (1st/2nd/3rd fumigation); 23/23/22° C.", "from_the_text": "b2) Common furniture beetle (Anobium punctatum)=[…]\nas §2, §3, §4, §5"}, "[2]": {"tested_on": "Mealworm beetle (Tenebrio molitor) larvae", "experiment": "Fumigation test in glass vessel, mealworm beetle larvae", "conditions": "TENEMO larvae"}, "[3]": {"tested_on": "Rice weevil (Sitophilus oryzae) larvae", "experiment": "Fumigation test in glass vessel, rice weevil larvae in grain seeds", "conditions": "SITTOR larvae in grain seeds", "from_the_text": "a2) Rice weevil (Sitophilus oryzae)=SITTOR\nas §2, §3, §4, §5"}, "[4]": {"tested_on": "American drywood termites (Cryptotermes brevis)", "experiment": "Termite control fumigation test, Cryptotermes brevis", "conditions": "Example 6", "from_the_text": "as §1, §2, §3, §4, §5"}, "[5]": {"conditions": "INCITA termites, ACF 50.0/53.8 g/m^3, SF 47.8/44.8 g/m^3 (1st/2nd fumigation), 23.7/24° C."}, "[6]": {"conditions": "Example 4, gas 36.5 g/m^3, 19.3° C., 54% rel. air humidity"}, "[7]": {"conditions": "Example 5, ACF 50.6/48.2/51.4 g/m^3, SF 47.4/44.6/41 g/m^3 (1st/2nd/3rd fumigation), 23/23/22° C."}, "[8]": {"conditions": "Example 7, ACF 53.0/54.6/0 g/m^3, second gas (SF) 43.6/41.4/39.8 g/m^3 (1st/2nd/3rd fumigation), 20.0/20.2/19.8 C."}, "[9]": {"conditions": "CRYPBR termites, ACF 50.0/53.8 g/m^3, SF 47.8/44.8 g/m^3 (1st/2nd fumigation), 23.7/24° C."}},
  "data": [
    {"smiles": "CC(=O)F", "note": "[ACF, acetyl fluoride]", "values": [
      {"measurement": "Number of Incisitermes still alive on reexamination after 24-hour observation period", "setting": "Incisitermes tabogae; out of 30 animals fumigated 1 hour, then 24-hour observation", "result": 3},
      {"measurement": "Number alive, 30 min. after 1st Fumigation", "setting": "Incisitermes tabogae; [5]", "result": 90},
      {"measurement": "Number alive, 1 hr. after 1st Fumigation", "setting": "Incisitermes tabogae; [5]", "result": 30},
      {"measurement": "Number alive, 3 hrs. after 1st Fumigation", "setting": "Incisitermes tabogae; [5]", "result": 0},
      {"measurement": "Number dead, 30 min. after 1st Fumigation", "setting": "Incisitermes tabogae; [5]", "result": 0},
      {"measurement": "Number dead, 1 hr. after 1st Fumigation", "setting": "Incisitermes tabogae; [5]", "result": 0},
      {"measurement": "Number dead, 3 hrs. after 1st Fumigation", "setting": "Incisitermes tabogae; [5]", "result": 60},
      {"measurement": "Number alive, 30 min. after Start of Fumigation", "setting": "[1]", "result": 0},
      {"measurement": "Number dead, 30 min. after Start of Fumigation", "setting": "[1]", "result": 6},
      {"measurement": "Number alive, 1 hr. after Start of Fumigation", "setting": "[2]; [6]", "result": 5},
      {"measurement": "Number alive, 2 hrs. after Start of Fumigation", "setting": "[2]; [6]", "result": 0},
      {"measurement": "Number dead, 1 hr. after Start of Fumigation", "setting": "[2]; [6]", "result": 5},
      {"measurement": "Number dead, 2 hrs. after Start of Fumigation", "setting": "[2]; [6]", "result": 10},
      {"measurement": "Number alive, 30 min. after Start of Fumigation", "setting": "[2]; [7]", "result": 0},
      {"measurement": "Number dead, 30 min. after Start of Fumigation", "setting": "[2]; [7]", "result": 10},
      {"measurement": "Number alive, 30 min. after 1st Fumigation", "setting": "[2]; [8]", "result": 5},
      {"measurement": "Number alive, 1 hr. after 1st Fumigation", "setting": "[2]; [8]", "result": 0},
      {"measurement": "Number dead, 30 min. after 1st Fumigation", "setting": "[2]; [8]", "result": 5},
      {"measurement": "Number dead, 1 hr. after 1st Fumigation", "setting": "[2]; [8]", "result": 10},
      {"measurement": "Number alive, 24 hrs. after Start of Fumigation", "setting": "[3]; [6]", "result": 0},
      {"measurement": "Number dead, 24 hrs. after Start of Fumigation", "setting": "[3]; [6]", "result": 25},
      {"measurement": "Number alive, 1 hr. after Start of Fumigation", "setting": "[3]; [7]", "result": 0},
      {"measurement": "Number dead, 1 hr. after Start of Fumigation", "setting": "[3]; [7]", "result": 15},
      {"measurement": "Number alive, 30 min. after 1st Fumigation", "setting": "[4]; [9]", "result": 180},
      {"measurement": "Number alive, 1 hr. after 1st Fumigation", "setting": "[4]; [9]", "result": 60},
      {"measurement": "Number alive, 3 hrs. after 1st Fumigation", "setting": "[4]; [9]", "result": 0},
      {"measurement": "Number dead, 30 min. after 1st Fumigation", "setting": "[4]; [9]", "result": 0},
      {"measurement": "Number dead, 1 hr. after 1st Fumigation", "setting": "[4]; [9]", "result": 0},
      {"measurement": "Number dead, 3 hrs. after 1st Fumigation", "setting": "[4]; [9]", "result": 120},
      {"measurement": "Effectiveness against Cryptotermes", "setting": "[4]", "result": "particularly effective"},
      {"measurement": "Condition of Cryptotermes on reexamination after 24-hour observation period", "setting": "[4]; animals fumigated 1 hour, then 24-hour observation", "result": "dead"}
    ]}
  ]
}
